Source: patent US7495126B2, “Process of preparation of substituted tetrafluorobenzylaniline compound and its pharmaceutically approved salts” (priority 2005, dated 2009)

Assays:
[1] = Acute toxicity test in rats, single intravenous dose; format: in vivo; conditions: male, Sprague-Dawley, rat, in vivo, iv; rats, single i.v. dose, 14 days; read-out: Estimated LD50
[2] = system: SD (Sprague Dawley) male rats; experiment: as above; format: in vivo; conditions: for Number of dead animals/Number of drug-treated animals: 14 days after administration; for toxicity compared with free base: rats, i.v., Tables 7-9
[3] = Stability test of oral preparation (powder in vial, HPLC); conditions: for Residual amount: powder (solid); for stability in powder form: high temperatures
Protocol: It was then stored at different temperatures (25° C., 40° C., 60° C.) for 6 months and the amount of active ingredients in powder were measured by HPLC.

physchem = format: physicochemical; conditions: 25 °C, water, thermodynamic from solid
[4] = Stability test of injectable preparation (salt in WFI, HPLC); conditions: for Residual amount: in WFI 2 mg/ml

In the case of `O=C(O)c1cc(NCc2c(F)c(F)c(C(F)(F)F)c(F)c2F)ccc1O` [free base form, 2-hydroxy-5-(2,3,5,6-tetrafluoro-4-trifluoromethyl-benzylamino)benzoic acid], the LD50 at 14 day [1] is reported as 115 to 150 mg/kg, the “Number of dead animals/Number of drug-treated animals” value ([2]; 52 mg/kg single i.v. dose) is reported as 0/7 and the “Number of dead animals/Number of drug-treated animals” value ([2]; 68 mg/kg single i.v. dose) is reported as 1/7. The “Number of dead animals/Number of drug-treated animals” value ([2]; 89 mg/kg single i.v. dose) was 3/7, the “Number of dead animals/Number of drug-treated animals” value ([2]; 115 mg/kg single i.v. dose) was 3/7 and the “Number of dead animals/Number of drug-treated animals” value ([2]; 150 mg/kg single i.v. dose) was 6/7. The “Number of dead animals/Number of drug-treated animals” value ([2]; 171 mg/kg single i.v. dose) was 6/7, the “Number of dead animals/Number of drug-treated animals” value ([2]; 184 mg/kg single i.v. dose) was 7/7 and the “Number of dead animals/Number of drug-treated animals” value ([2]; 195 mg/kg single i.v. dose) was 7/7.
`O=C([O-])c1cc(NCc2c(F)c(F)c(C(F)(F)F)c(F)c2F)ccc1O.[Li+]` [lithium salt, lithium 2-hydroxy-5-(2,3,5,6-tetrafluoro-4-trifluoromethyl-benzylamino)benzoate] gave a Residual amount ([3]; 25° C., day 0) of 98.56 ± 0.89%, a Residual amount ([3]; 25° C., day 7) of 98.32 ± 0.32% and a Residual amount ([3]; 25° C., day 14) of 97.69 ± 2.58%. For the same molecule, the Residual amount ([3]; 25° C., day 21) was 96.87 ± 1.64%, the Residual amount ([3]; 25° C., day 30) was 95.01 ± 1.10% and the Residual amount ([3]; 25° C., day 60) was 94.78 ± 8.09%. The Residual amount ([3]; 25° C., day 120) was 92.69 ± 1.03%, the Residual amount ([3]; 25° C., day 180) was 90.85 ± 1.61% and the Residual amount ([3]; 40° C., day 0) was 98.56 ± 0.89%. The Residual amount ([3]; 40° C., day 7) was 98.16 ± 0.09%, the Residual amount ([3]; 40° C., day 14) was 96.18 ± 3.28% and the Residual amount ([3]; 40° C., day 21) was 96.02 ± 2.49%. The Residual amount ([3]; 40° C., day 30) was 95.96 ± 0.89%, the Residual amount ([3]; 40° C., day 60) was 95.70 ± 6.88% and the Residual amount ([3]; 40° C., day 120) was 95.58 ± 1.38%. The Residual amount ([3]; 40° C., day 180) was 95.40 ± 2.37%, the Residual amount ([3]; 60° C., day 0) was 98.56 ± 0.89% and the Residual amount ([3]; 60° C., day 7) was 97.49 ± 0.80%. The Residual amount ([3]; 60° C., day 14) was 96.45 ± 2.80%, the Residual amount ([3]; 60° C., day 21) was 95.87 ± 2.09% and the Residual amount ([3]; 60° C., day 30) was 95.69 ± 2.97%. The Residual amount ([3]; 60° C., day 60) was 95.51 ± 1.99%, the Residual amount ([3]; 60° C., day 120) was 94.84 ± 0.56% and the Residual amount ([3]; 60° C., day 180) was 92.48 ± 3.14%. The solubility at 48 h (physchem) was 500 mg/mL.
For `O=C([O-])c1cc(NCc2c(F)c(F)c(C(F)(F)F)c(F)c2F)ccc1O.[K+]` [potassium salt, potassium 2-hydroxy-5-(2,3,5,6-tetrafluoro-4-trifluoromethyl-benzylamino)benzoate], the “stability in powder form” value [3] was “relatively stable in high temperatures”, the Residual amount ([3]; 25° C., day 0) was 100.43 ± 0.30% and the Residual amount ([3]; 25° C., day 30) was 100.31 ± 0.25%. For the same molecule, the Residual amount ([3]; 25° C., day 60) was 100.20 ± 0.55%, the Residual amount ([3]; 25° C., day 90) was 100.17 ± 0.46% and the Residual amount ([3]; 25° C., day 120) was 100.07 ± 0.43%. It also gave a Residual amount ([3]; 25° C., day 180) of 100.03 ± 0.80%, a Residual amount ([3]; 40° C., day 0) of 100.43 ± 0.30% and a Residual amount ([3]; 40° C., day 30) of 100.28 ± 1.10%. The Residual amount ([3]; 40° C., day 60) was 100.14 ± 0.80%, the Residual amount ([3]; 40° C., day 90) was 100.10 ± 0.71% and the Residual amount ([3]; 40° C., day 120) was 99.81 ± 0.78%. It also gave a Residual amount ([3]; 40° C., day 180) of 99.78 ± 0.31%, a Residual amount ([3]; 60° C., day 0) of 100.43 ± 0.30% and a Residual amount ([3]; 60° C., day 30) of 99.60 ± 0.50%. It also gave a Residual amount ([3]; 60° C., day 60) of 99.56 ± 0.85%, a Residual amount ([3]; 60° C., day 90) of 99.27 ± 0.80% and a Residual amount ([3]; 60° C., day 120) of 99.03 ± 0.90%. The Residual amount ([3]; 60° C., day 180) was 98.87 ± 0.92%, the LD50 at 14 day [1] was 200 to 250 mg/kg and the “Number of dead animals/Number of drug-treated animals” value ([2]; 50 mg/kg single i.v. dose) was 0/6. For the same molecule, the “Number of dead animals/Number of drug-treated animals” value ([2]; 100 mg/kg single i.v. dose) was 0/6, the “Number of dead animals/Number of drug-treated animals” value ([2]; 150 mg/kg single i.v. dose) was 0/6 and the “Number of dead animals/Number of drug-treated animals” value ([2]; 200 mg/kg single i.v. dose) was 0/6. The “Number of dead animals/Number of drug-treated animals” value ([2]; 250 mg/kg single i.v. dose) was 3/3, the “Number of dead animals/Number of drug-treated animals” value ([2]; 300 mg/kg single i.v. dose) was 1/1 and the “Number of dead animals/Number of drug-treated animals” value ([2]; 500 mg/kg single i.v. dose) was 2/2. The “toxicity compared with free base” value [2] was “less toxicity than free base”, the Residual amount ([4]; 25° C., day 7) was 103.92 ± 1.20% and the “stability profile in injectable preparation” value ([4]; in WFI, 25-60° C., 6 months) was “better than that of sodium- and lithium-salt compound”. The solubility at 48 h (physchem) was 590 mg/mL.
In the case of `O=C([O-])c1cc(NCc2c(F)c(F)c(C(F)(F)F)c(F)c2F)ccc1O.[Na+]` [sodium salt, sodium 2-hydroxy-5-(2,3,5,6-tetrafluoro-4-trifluoromethyl-benzylamino)benzoate], the “stability in powder form” value [3] is reported as “relatively stable in high temperatures”, the Residual amount ([3]; 25° C., day 0) is reported as 101.33 ± 1.02% and the Residual amount ([3]; 25° C., day 7) is reported as 100.75 ± 6.24%. It also gave a Residual amount ([3]; 25° C., day 14) of 100.45 ± 1.24%, a Residual amount ([3]; 25° C., day 21) of 99.76 ± 0.70% and a Residual amount ([3]; 25° C., day 30) of 99.61 ± 3.21%. For the same molecule, the Residual amount ([3]; 25° C., day 60) was 99.60 ± 0.16%, the Residual amount ([3]; 25° C., day 120) was 99.51 ± 1.70% and the Residual amount ([3]; 25° C., day 180) was 99.19 ± 2.28%. For the same molecule, the Residual amount ([3]; 40° C., day 0) was 101.33 ± 1.02%, the Residual amount ([3]; 40° C., day 7) was 100.81 ± 3.35% and the Residual amount ([3]; 40° C., day 14) was 100.69 ± 0.29%. The Residual amount ([3]; 40° C., day 21) was 100.57 ± 0.48%, the Residual amount ([3]; 40° C., day 30) was 100.46 ± 0.27% and the Residual amount ([3]; 40° C., day 60) was 100.07 ± 0.16%. For the same molecule, the Residual amount ([3]; 40° C., day 120) was 99.94 ± 1.15%, the Residual amount ([3]; 40° C., day 180) was 99.89 ± 1.11% and the Residual amount ([3]; 60° C., day 0) was 101.33 ± 1.02%. For the same molecule, the Residual amount ([3]; 60° C., day 7) was 101.27 ± 4.45%, the Residual amount ([3]; 60° C., day 14) was 101.14 ± 0.50% and the Residual amount ([3]; 60° C., day 21) was 100.15 ± 1.14%. For the same molecule, the Residual amount ([3]; 60° C., day 30) was 100.10 ± 0.75%, the Residual amount ([3]; 60° C., day 60) was 99.91 ± 1.18% and the Residual amount ([3]; 60° C., day 120) was 99.81 ± 2.28%. The Residual amount ([3]; 60° C., day 180) was 99.75 ± 0.20%, the LD50 at 14 day [1] was 225 to 250 mg/kg and the “Number of dead animals/Number of drug-treated animals” value ([2]; 50 mg/kg single i.v. dose) was 0/5. The “Number of dead animals/Number of drug-treated animals” value ([2]; 100 mg/kg single i.v. dose) was 0/5, the “Number of dead animals/Number of drug-treated animals” value ([2]; 150 mg/kg single i.v. dose) was 0/7 and the “Number of dead animals/Number of drug-treated animals” value ([2]; 175 mg/kg single i.v. dose) was 1/7. For the same molecule, the “Number of dead animals/Number of drug-treated animals” value ([2]; 200 mg/kg single i.v. dose) was 2/7, the “Number of dead animals/Number of drug-treated animals” value ([2]; 225 mg/kg single i.v. dose) was 2/7 and the “Number of dead animals/Number of drug-treated animals” value ([2]; 250 mg/kg single i.v. dose) was 5/5. The “toxicity compared with free base” value [2] was “less toxicity than free base”, the Residual amount ([4]; 25° C., day 0) was 104.15 ± 0.54% and the Residual amount ([4]; 25° C., day 3) was 101.89 ± 1.16%. The Residual amount ([4]; 25° C., day 7) was 100.59 ± 0.19%, the Residual amount ([4]; 25° C., day 14) was 101.63 ± 0.19% and the Residual amount ([4]; 25° C., day 21) was 99.25 ± 1.41%. It also gave a Residual amount ([4]; 25° C., day 30) of 98.50 ± 1.64%, a Residual amount ([4]; 25° C., day 60) of 98.52 ± 0.02% and a Residual amount ([4]; 25° C., day 90) of 94.04 ± 4.28%. For the same molecule, the Residual amount ([4]; 25° C., day 120) was 92.79 ± 1.01%, the Residual amount ([4]; 25° C., day 150) was 90.18 ± 3.14% and the Residual amount ([4]; 25° C., day 180) was 85.56 ± 4.58%. The Residual amount ([4]; 40° C., day 0) was 104.15 ± 0.54%, the Residual amount ([4]; 40° C., day 3) was 102.77 ± 0.08% and the Residual amount ([4]; 40° C., day 7) was 98.54 ± 0.71%. For the same molecule, the Residual amount ([4]; 40° C., day 14) was 99.56 ± 0.72%, the Residual amount ([4]; 40° C., day 21) was 95.98 ± 1.50% and the Residual amount ([4]; 40° C., day 30) was 95.17 ± 0.07%. It also gave a Residual amount ([4]; 40° C., day 60) of 91.51 ± 1.17%, a Residual amount ([4]; 40° C., day 90) of 86.36 ± 0.90% and a Residual amount ([4]; 40° C., day 120) of 79.02 ± 1.05%. The Residual amount ([4]; 40° C., day 150) was 77.42 ± 0.71%, the Residual amount ([4]; 40° C., day 180) was 72.32 ± 0.38% and the Residual amount ([4]; 60° C., day 0) was 104.15 ± 0.54%. The Residual amount ([4]; 60° C., day 3) was 99.39 ± 0.43%, the Residual amount ([4]; 60° C., day 7) was 92.01 ± 1.27% and the Residual amount ([4]; 60° C., day 14) was 92.96 ± 1.28%. For the same molecule, the Residual amount ([4]; 60° C., day 21) was 84.54 ± 1.34%, the Residual amount ([4]; 60° C., day 30) was 82.88 ± 4.35% and the Residual amount ([4]; 60° C., day 60) was 70.25 ± 4.27%. The Residual amount ([4]; 60° C., day 90) was 56.00 ± 11.70%, the Residual amount ([4]; 60° C., day 120) was 53.43 ± 6.30% and the Residual amount ([4]; 60° C., day 150) was 40.37 ± 14.41%. The Residual amount ([4]; 60° C., day 180) was 37.10 ± 12.35% and the solubility at 48 h (physchem) was 25 to 80 mg/mL.
